Laboratory results taken from ChEMBL document CHEMBL1149305, “Charge and substituent effects on affinity and metabolism of benzbromarone-based CYP2C19 inhibitors” (J Med Chem, 2004).

What was measured:
Cytochrome P450 2C19 = Cytochrome P450 2C19 (Homo sapiens, UniProt P33261); assay: Inhibition of human CYP2C19; assay type: ADME
[1] = Dissociation constant, pKa of the compound; assay type: physicochemical
Cytochrome P450 2C9 = Cytochrome P450 2C9 (Homo sapiens, UniProt P11712); assay: Inhibition of human CYP2C9
Chain of Cytochrome P450 2C9 (P11712 whole entry): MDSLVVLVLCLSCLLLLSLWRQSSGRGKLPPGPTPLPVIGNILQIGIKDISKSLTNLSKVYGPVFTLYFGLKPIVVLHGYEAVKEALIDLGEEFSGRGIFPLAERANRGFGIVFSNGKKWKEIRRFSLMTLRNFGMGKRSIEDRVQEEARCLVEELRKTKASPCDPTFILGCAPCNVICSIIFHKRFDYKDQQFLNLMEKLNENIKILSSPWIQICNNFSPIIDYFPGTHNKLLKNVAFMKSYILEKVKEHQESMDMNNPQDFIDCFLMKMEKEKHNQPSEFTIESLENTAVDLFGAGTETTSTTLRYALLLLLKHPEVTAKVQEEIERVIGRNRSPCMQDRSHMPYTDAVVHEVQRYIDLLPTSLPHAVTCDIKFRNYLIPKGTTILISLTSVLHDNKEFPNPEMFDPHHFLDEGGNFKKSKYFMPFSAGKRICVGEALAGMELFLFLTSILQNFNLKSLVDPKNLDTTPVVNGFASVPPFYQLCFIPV

Chain of Cytochrome P450 2C19 (P33261 whole entry): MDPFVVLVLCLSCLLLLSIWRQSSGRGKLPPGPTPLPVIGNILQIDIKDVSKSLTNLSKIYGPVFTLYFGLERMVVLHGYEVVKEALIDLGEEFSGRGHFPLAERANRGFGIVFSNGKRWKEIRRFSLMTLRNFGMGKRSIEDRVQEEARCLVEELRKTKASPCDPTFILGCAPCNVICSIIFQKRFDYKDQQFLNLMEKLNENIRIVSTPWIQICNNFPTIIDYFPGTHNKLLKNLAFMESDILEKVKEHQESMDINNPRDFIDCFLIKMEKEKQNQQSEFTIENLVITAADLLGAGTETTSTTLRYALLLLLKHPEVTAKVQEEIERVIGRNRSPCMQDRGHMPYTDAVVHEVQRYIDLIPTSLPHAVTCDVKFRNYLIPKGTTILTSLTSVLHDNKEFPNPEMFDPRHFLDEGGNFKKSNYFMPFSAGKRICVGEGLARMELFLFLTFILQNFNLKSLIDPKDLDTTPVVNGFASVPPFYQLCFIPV

In the case of `CCc1oc2ccccc2c1C(=O)c1cc(C)c(OC)c(C)c1`, the Ki (Cytochrome P450 2C19) is reported as 0.25 µM and the Activity [1] is reported as “Not Active”.

With `Cc1oc2ccccc2c1C(=O)c1cccc(O)c1` the Ki (Cytochrome P450 2C19) was 4.5 µM and the pKa [1] was 8.4.

Molecule `CCc1oc2ccccc2c1C(=O)c1cc(Br)c(O)c(Br)c1` [BENZBROMARONE] has a pKa [1] of 4.5.

With `Cc1oc2ccccc2c1C(=O)C1CCCCC1` the Ki (Cytochrome P450 2C19) was 13 µM and the Activity [1] was “Not Active”.

In the case of `CCc1oc2ccccc2c1C(=O)c1cc(Cl)nc(Cl)c1`, the Ki (Cytochrome P450 2C19) is reported as 13 µM and the Activity [1] is reported as “Not Active”.

With `CCc1oc2ccccc2c1C(=O)c1cc(Br)c(OC)c(Br)c1` the Ki (Cytochrome P450 2C19) was 0.37 µM and the Activity [1] was “Not Active”.

With `Cc1oc2ccccc2c1C(=O)c1ccc(O)cc1` the Ki (Cytochrome P450 2C19) was 2.5 µM and the pKa [1] was 8.4.

For `CCc1oc2ccccc2c1C(=O)c1ccc(N(C)C)cc1`, the Ki (Cytochrome P450 2C19) was 3.7 µM and the Activity [1] was “Not Active”.

In the case of `CCc1oc2ccccc2c1C(=O)Cc1cc(Br)c(O)c(Br)c1`, the Ki (Cytochrome P450 2C19) is reported as 1.6 µM and the pKa [1] is reported as 8.6.

With `CCc1oc2ccccc2c1C(=O)c1cc(C)c(O)c(C)c1` the Ki (Cytochrome P450 2C19) was 0.033 µM, the pKa [1] was 8.5 and the Ki (Cytochrome P450 2C9) was 0.04 µM.

Molecule `Cc1oc2ccccc2c1C(=O)c1cc(I)c(O)c(I)c1` has a Ki (Cytochrome P450 2C19) of 7.2 µM and a pKa [1] of 5.2.

For `CCc1oc2ccccc2c1C(O)c1cc(Br)c(O)c(Br)c1` (configuration not stated), the Ki (Cytochrome P450 2C19) was 0.3 µM and the pKa [1] was 8.8.

With `COc1ccc(C(=O)c2c(C)oc3ccccc23)cc1` the Ki (Cytochrome P450 2C19) was 4.5 µM and the Activity [1] was “Not Active”.

For `Cc1oc2ccccc2c1C(=O)c1cc(Br)c(O)c(Br)c1`, the Ki (Cytochrome P450 2C19) was 2.4 µM.
